Test results as given in patent US20100267561A1, “HERBICIDAL PYRIDAZINONE DERIVATIVES” (priority 2007, published 2010).

Key:
Format in all cases: in vivo
canola (Brassica rapa) = test: Test C pre-/postemergence plant response; details: Preemergence
Procedure, shortened: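 Pre- and postemergence treatment, visual 0–100 rating vs controls at 15–25 days.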

[1] = test system: barnyardgrass (Echinochloa crus-galli); test: Test E pre-/postemergence plant response; details: scale 0 to 100
Procedure, shortened: (§1)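 Formulated in a non-phytotoxic solvent mixture containing surfactant, compound was applied to soil at planting or sprayed on emerged plants at the 1- to 4-leaf stage. Visual comparison with controls followed 14 to 21 days in the greenhouse; 0 = no effect, 100 = complete control.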

[2] = test system: black mustard (Brassica nigra); test: Test E pre-/postemergence plant response; details: scale 0 to 100
Procedure, shortened: as §1

[3] = test system: common groundsel (Senecio vulgaris); test: Test E pre-/postemergence plant response; details: scale 0 to 100
Procedure, shortened: as §1

[4] = test system: common purslane (Portulaca oleracea); test: Test E pre-/postemergence plant response; details: scale 0 to 100
Procedure, shortened: as §1

[5] = test system: dallisgrass (Paspalum dilatatum); test: Test E pre-/postemergence plant response; details: scale 0 to 100
Procedure, shortened: as §1

[6] = test system: goosegrass (Eleusine indica); test: Test E pre-/postemergence plant response; details: scale 0 to 100
Procedure, shortened: as §1

[7] = test system: guineagrass (Panicum maximum); test: Test E pre-/postemergence plant response; details: scale 0 to 100
Procedure, shortened: as §1

[8] = test system: southern (S.) sandbur (Cenchrus echinatus); test: Test E pre-/postemergence plant response; details: scale 0 to 100
Procedure, shortened: as §1

## Cc1cc(-c2ccc(Cl)cc2)nn1-c1c(OC(=O)C(C)C)cnn(C)c1=O [Compound 34]
Canola (Brassica rapa); 8 g ai/ha, scale 0 to 100 (0 no effect, 100 complete control)
  Plant response rating, Canola: 0
Canola (Brassica rapa); 16 g ai/ha, scale 0 to 100 (0 no effect, 100 complete control)
  Plant response rating, Canola: 0
Canola (Brassica rapa); 31 g ai/ha, scale 0 to 100 (0 no effect, 100 complete control)
  Plant response rating, Canola: 0
Canola (Brassica rapa); 62 g ai/ha, scale 0 to 100, 0 no effect, 100 complete control
  Plant response rating, Canola: 0
[1]; 16 g ai/ha, Preemergence
  Plant response rating, Barnyardgrass: 80
[1]; 31 g ai/ha, Preemergence
  Plant response rating, Barnyardgrass: 100
[1]; 62 g ai/ha, Preemergence
  Plant response rating, Barnyardgrass: 100
[1]; Postemergence, 8 g ai/ha
  Plant response rating, Barnyardgrass: 95
[1]; Postemergence, 16 g ai/ha
  Plant response rating, Barnyardgrass: 100
[1]; Postemergence, 31 g ai/ha
  Plant response rating, Barnyardgrass: 100
[1]; Postemergence, 62 g ai/ha
  Plant response rating, Barnyardgrass: 100
[2]; 16 g ai/ha, Preemergence
  Plant response rating, Mustard, Black: 0
[2]; 31 g ai/ha, Preemergence
  Plant response rating, Mustard, Black: 0
[2]; 62 g ai/ha, Preemergence
  Plant response rating, Mustard, Black: 0
[2]; Postemergence, 8 g ai/ha
  Plant response rating, Mustard, Black: 0
[2]; Postemergence, 16 g ai/ha
  Plant response rating, Mustard, Black: 0
[2]; Postemergence, 31 g ai/ha
  Plant response rating, Mustard, Black: 0
[2]; Postemergence, 62 g ai/ha
  Plant response rating, Mustard, Black: 0
[3]; 16 g ai/ha, Preemergence
  Plant response rating, Groundsel: 0
[3]; 31 g ai/ha, Preemergence
  Plant response rating, Groundsel: 0
[3]; 62 g ai/ha, Preemergence
  Plant response rating, Groundsel: 0
[3]; Postemergence, 8 g ai/ha
  Plant response rating, Groundsel: 0
[3]; Postemergence, 16 g ai/ha
  Plant response rating, Groundsel: 0
[3]; Postemergence, 31 g ai/ha
  Plant response rating, Groundsel: 0
[3]; Postemergence, 62 g ai/ha
  Plant response rating, Groundsel: 0
[4]; 16 g ai/ha, Preemergence
  Plant response rating, Purslane: 0
[4]; 31 g ai/ha, Preemergence
  Plant response rating, Purslane: 0
[4]; Postemergence, 8 g ai/ha
  Plant response rating, Purslane: 0
[4]; Postemergence, 16 g ai/ha
  Plant response rating, Purslane: 0
[4]; Postemergence, 31 g ai/ha
  Plant response rating, Purslane: 0
[4]; Postemergence, 62 g ai/ha
  Plant response rating, Purslane: 0
[5]; 16 g ai/ha, Preemergence
  Plant response rating, Dallisgrass: 50
[5]; 31 g ai/ha, Preemergence
  Plant response rating, Dallisgrass: 85
[5]; 62 g ai/ha, Preemergence
  Plant response rating, Dallisgrass: 85
[5]; Postemergence, 8 g ai/ha
  Plant response rating, Dallisgrass: 10
[5]; Postemergence, 16 g ai/ha
  Plant response rating, Dallisgrass: 20
[5]; Postemergence, 31 g ai/ha
  Plant response rating, Dallisgrass: 20
[5]; Postemergence, 62 g ai/ha
  Plant response rating, Dallisgrass: 70
[6]; 16 g ai/ha, Preemergence
  Plant response rating, Goosegrass: 65
[6]; 31 g ai/ha, Preemergence
  Plant response rating, Goosegrass: 95
[6]; 62 g ai/ha, Preemergence
  Plant response rating, Goosegrass: 100
[6]; Postemergence, 8 g ai/ha
  Plant response rating, Goosegrass: 0
[6]; Postemergence, 16 g ai/ha
  Plant response rating, Goosegrass: 20
[6]; Postemergence, 31 g ai/ha
  Plant response rating, Goosegrass: 80
[6]; Postemergence, 62 g ai/ha
  Plant response rating, Goosegrass: 80
[7]; 16 g ai/ha, Preemergence
  Plant response rating, Guineagrass: 100
[7]; 31 g ai/ha, Preemergence
  Plant response rating, Guineagrass: 100
[7]; 62 g ai/ha, Preemergence
  Plant response rating, Guineagrass: 100
[7]; Postemergence, 8 g ai/ha
  Plant response rating, Guineagrass: 95
[7]; Postemergence, 16 g ai/ha
  Plant response rating, Guineagrass: 95
[7]; Postemergence, 31 g ai/ha
  Plant response rating, Guineagrass: 100
[7]; Postemergence, 62 g ai/ha
  Plant response rating, Guineagrass: 100
[8]; 16 g ai/ha, Preemergence
  Plant response rating, Sandbur, S.: 75
[8]; 31 g ai/ha, Preemergence
  Plant response rating, Sandbur, S.: 90
[8]; 62 g ai/ha, Preemergence
  Plant response rating, Sandbur, S.: 100
[8]; Postemergence, 8 g ai/ha
  Plant response rating, Sandbur, S.: 75
[8]; Postemergence, 16 g ai/ha
  Plant response rating, Sandbur, S.: 75
[8]; Postemergence, 31 g ai/ha
  Plant response rating, Sandbur, S.: 90
[8]; Postemergence, 62 g ai/ha
  Plant response rating, Sandbur, S.: 100
